We go through 17 molecules from patent US20190010158A1, “ANTITUMOR EFFECT POTENTIATOR COMPRISING PYRROLOPYRIMIDINE COMPOUND” (TAIHO PHARMACEUTICAL CO., LTD, priority 2015, published 2019).

In assay [1] the test system is tumor cell lines shown in Table 44. Kind of assay: Example 12: combined use with platinum-based antitumor agent, cell growth inhibition test (IC50 ratio, CI). To be noted: for IC50 Ratio: IC50 of Reference Example Compound 55 : IC50 of other compound = 1:value; for CI: at ED50; for Comprehensive Evaluation: combined use with Reference Example Compound 55.
Assay [2] concerns U266B1. The assay is described as follows: Example 1: combined use with proteasome inhibitor, cell growth inhibition test (IC50 ratio, CI), U266B1. The format is cell-based, human. The following applies: for CI: at ED50.
In assay [3] the test system is tumor cell lines shown in Table 48. The assay is described as follows: Example 14: combined use with alkylating agent, cell growth inhibition test (IC50 ratio, CI). The following applies: for IC50 Ratio: IC50 of Reference Example Compound 55 : IC50 of other compound = 1:value; for CI: at ED50; for Comprehensive Evaluation: combined use with Reference Example Compound 55. The format is cell-based.

The test system of assay [4] is tumor cell lines shown in Table 30. The assay is described as follows: Example 5: combined use with steroid, cell growth inhibition test (IC50 ratio, CI). The following applies: MM.1S; for IC50 Ratio: IC50 of Reference Example Compound 55 : IC50 of other compound = 1:value; for CI: at ED50; for Comprehensive Evaluation: combined use with Reference Example Compound 55.

Assay [5] deals with tumor cell lines shown in Table 50. Kind of assay: Example 15: combined use with anthracycline-based antitumor agent, cell growth inhibition test (IC50 ratio, CI). To be noted: for IC50 Ratio: IC50 of Reference Example Compound 55 : IC50 of other compound = 1:value; for CI: at ED50; for Comprehensive Evaluation: combined use with Reference Example Compound 55.
Assay [6] concerns tumor cell lines shown in Table 46. Kind of assay: Example 13: combined use with microtubule inhibitor, cell growth inhibition test (IC50 ratio, CI). The assay is classed as cell-based. To be noted: A549; for IC50 Ratio: IC50 of Reference Example Compound 55 : IC50 of other compound = 1:value; for CI: at ED50; for Comprehensive Evaluation: combined use with Reference Example Compound 55.

Assay [7] relates to tumor cell lines shown in Table 32. Kind of assay: Example 6: combined use with immunomodulator, cell growth inhibition test (IC50 ratio, CI). The format is cell-based. The following applies: MM.1S; for IC50 Ratio: IC50 of Reference Example Compound 55 : IC50 of other compound = 1:value; for CI: at ED50; for Comprehensive Evaluation: combined use with Reference Example Compound 55.

The target of assay [8] is T1, NAE (heterodimer of APPBP1 and UBA3) (Homo sapiens, UniProt Q8TBC4).
T1 construct: amino acids 1 to 463 of human UBA3 protein; made in house; host or cells: Sf9 insect cells (baculovirus co-infection) for NAE; E. coli BL21 (DE3) for GST-UBC12
T1 sequence (Q8TBC4 1-463): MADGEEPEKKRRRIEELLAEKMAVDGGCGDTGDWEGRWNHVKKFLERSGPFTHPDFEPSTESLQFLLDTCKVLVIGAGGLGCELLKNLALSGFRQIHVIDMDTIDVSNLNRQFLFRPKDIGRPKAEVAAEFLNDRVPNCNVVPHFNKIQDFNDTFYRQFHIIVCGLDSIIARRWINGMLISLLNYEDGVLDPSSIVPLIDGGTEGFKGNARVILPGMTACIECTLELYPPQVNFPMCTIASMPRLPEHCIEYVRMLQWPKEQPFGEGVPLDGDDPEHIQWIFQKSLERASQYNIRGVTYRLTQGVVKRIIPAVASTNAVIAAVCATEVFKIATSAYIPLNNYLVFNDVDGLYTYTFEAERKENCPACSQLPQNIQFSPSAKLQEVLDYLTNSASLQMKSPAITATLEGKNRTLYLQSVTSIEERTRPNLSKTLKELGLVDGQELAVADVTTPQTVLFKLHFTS
T1 sequence (Q13564 1-534 partner): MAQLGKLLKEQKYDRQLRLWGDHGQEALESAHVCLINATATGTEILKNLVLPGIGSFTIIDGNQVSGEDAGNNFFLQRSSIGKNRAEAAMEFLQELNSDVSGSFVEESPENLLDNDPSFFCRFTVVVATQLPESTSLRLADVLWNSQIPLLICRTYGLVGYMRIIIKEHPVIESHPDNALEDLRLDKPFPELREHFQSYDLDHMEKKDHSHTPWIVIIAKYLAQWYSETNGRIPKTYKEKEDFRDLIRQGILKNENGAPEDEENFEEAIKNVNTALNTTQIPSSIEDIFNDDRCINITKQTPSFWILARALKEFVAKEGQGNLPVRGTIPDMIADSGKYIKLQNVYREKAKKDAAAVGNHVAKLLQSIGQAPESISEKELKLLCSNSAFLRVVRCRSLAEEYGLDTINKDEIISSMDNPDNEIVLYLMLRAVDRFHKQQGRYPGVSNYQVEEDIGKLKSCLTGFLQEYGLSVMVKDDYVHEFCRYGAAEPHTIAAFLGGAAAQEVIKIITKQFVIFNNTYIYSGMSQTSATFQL
The assay is described as follows: Nedd8 conjugation inhibitory activity (AlphaScreen). The assay is classed as biochemical. The following applies: purified NAE, GST-UBC12, ATP, Biotin-Nedd8, reaction 90 minutes. For orientation: Bead proximity is the source of the signal in Alpha formats.

For assay [9], the system named is human acute T lymphoblastic leukemia CCRF-CEM cell lines. The assay is described as follows: Cell growth inhibition 1 (CellTiter-Glo). The following applies: culture with test compound 72 hours. The format is cell-based. In general terms: Cellular ATP, detected with luciferase, serves as a proxy for viable cell number.
Where [10] appears, read: MV4-11, Reference Example Compound 55:other compound 1:3000.
Where [11] appears, read: MV4-11, Reference Example Compound 55:other compound 1:9000.
Setting [12] is: Reference Example Compound 55:other compound 1:1.
[13] abbreviates: Reference Example Compound 55:other compound 1:10.

Each structure is given as a SMILES string.

Turning to `N.N.O=C([O-])C1(C(=O)[O-])CCC1.[Pt+2]` [Carboplatin, carboplatin], in [1] (A549), the “IC50 Ratio” value was 38 and the “Comprehensive Evaluation” value is “Slight”. Also, in assay [1] (A549, Reference Example Compound 55:other compound 1:17), the CI is 0.41. The CI in assay [1] (A549, Reference Example Compound 55:other compound 1:50) was 0.87.

As to `CC(C)C[C@H](NC(=O)[C@H](CCc1ccccc1)NC(=O)CN1CCOCC1)C(=O)N[C@@H](Cc1ccccc1)C(=O)N[C@@H](CC(C)C)C(=O)[C@@]1(C)CO1` [Carfilzomib, carfilzomib], the “IC50 Ratio” value in assay [2] (IC50 of Reference Example Compound 55 : IC50 of other compound = 1:value) stood at 0.30. The CI stood at 0.64 in assay [2] (Reference Example Compound 55:other compound 1:015) and 0.66 in assay [2] (Reference Example Compound 55:other compound 1:045). In addition, the “Comprehensive Evaluation” value in [2] (combined use with Reference Example Compound 55) was “Synergism (0.3-0.7)”.

In the case of `N.N.[Cl][Pt][Cl]` [Cisplatin, cisplatin], in assay [1] (HCT116), the “IC50 Ratio” value came out at 343 and the “Comprehensive Evaluation” value was “Moderate”. Besides, in assay [1] (HCT116, Reference Example Compound 55:other compound 1:333), the CI came to 0.44. For the same molecule, the CI in assay [1] (HCT116, Reference Example Compound 55:other compound 1:1000) was 0.72.

For `CN(C)/N=N/c1[nH]cnc1C(N)=O` [Dacarbazine, dacarbazine], in assay [3] (MV4-11), the “IC50 Ratio” value came out at 6582 and the “Comprehensive Evaluation” value is listed as “Additive (0.9-1.10)”. In addition, the CI in [3] (setting [10]) is given as 0.92. Besides, the CI in assay [3] (setting [11]) worked out at 0.95.

With `C[C@@H]1C[C@H]2[C@@H]3CCC4=CC(=O)C=C[C@]4(C)[C@@]3(F)[C@@H](O)C[C@]2(C)[C@@]1(O)C(=O)CO` [Dexamethasone, dexamethasone], in assay [4], the “IC50 Ratio” value worked out at 0.4 and the “Comprehensive Evaluation” value is reported as “Synergism (0.3-0.7)”. The CI in assay [4] (Reference Example Compound 55:other compound 1:0.3) amounted to 0.51. The CI in assay [4] (setting [12]) is on record as 0.39.

Regarding `COc1cccc2c1C(=O)c1c(O)c3c(c(O)c1C2=O)C[C@@](O)(C(=O)CO)C[C@@H]3O[C@H]1C[C@H](N)[C@H](O)[C@H](C)O1` [Doxorubicin, doxorubicin], in assay [5] (HOS), the “IC50 Ratio” value was 2 and the “Comprehensive Evaluation” value is reported as “Moderate”. In addition, in assay [5] (HOS, Reference Example Compound 55:other compound 1:1.7), the CI is given as 0.77. In assay [5] (HOS, Reference Example Compound 55:other compound 1:5), the CI was 0.61.

`C=C1C[C@@H]2CC[C@@]34C[C@H]5O[C@H]6[C@@H](O3)[C@H]3O[C@H](CC[C@@H]3O[C@H]6[C@H]5O4)CC(=O)C[C@@H]3[C@@H](OC)[C@@H](C[C@H](O)CN)O[C@H]3C[C@H]3O[C@@H](CC[C@@H]1O2)C[C@@H](C)C3=C` [Eribulin, eribulin]: in [6], the “IC50 Ratio” value is 0.01 and the “Comprehensive Evaluation” value is “Additive (0.9-1.10)”. The CI in [6] (Reference Example Compound 55:other compound 1:0.01) was 1.02. For the same molecule, the CI in assay [6] (Reference Example Compound 55:other compound 1:0.03) is listed as 0.89.

As for `O=P1(NCCCl)OCCCN1CCCl` (centres unmarked) [Ifosfamide, ifosfamide], in [3] (MV4-11), the “IC50 Ratio” value is on record as 6315 and the “Comprehensive Evaluation” value is recorded as “Synergism (0.3-0.7)”. Besides, the CI in [3] (setting [10]) stood at 0.57. Also, the CI in assay [3] (setting [11]) is recorded as 0.60.

`Nc1cccc2c1CN(C1CCC(=O)NC1=O)C2=O` (centres unmarked) [Lenalidomide, lenalidomide]: the “IC50 Ratio” value in assay [7] turned out to be 14. Besides, the CI in assay [7] (setting [13]) was 0.75; in assay [7] (Reference Example Compound 55:other compound 1:30), 0.69. In assay [7], the “Comprehensive Evaluation” value is given as “Moderate”.

As for `O=C1[O][Pt]2([NH][C@@H]3CCCC[C@H]3[NH]2)[O]C1=O` [Oxaliplatin, oxaliplatin], in [1] (HL-60), the “IC50 Ratio” value is given as 132 and the “Comprehensive Evaluation” value is “Synergism (0.3-0.7)”. The CI in assay [1] (HL-60, Reference Example Compound 55:other compound 1:100) was 0.65. For the same molecule, the CI in assay [1] (HL-60, Reference Example Compound 55:other compound 1:300) stood at 0.70.

On to `CC(=O)O[C@H]1C(=O)[C@@]2(C)[C@H]([C@H](OC(=O)c3ccccc3)[C@]3(O)C[C@H](OC(=O)[C@H](O)[C@@H](NC(=O)c4ccccc4)c4ccccc4)C(C)=C1C3(C)C)[C@]1(OC(C)=O)CO[C@@H]1C[C@@H]2O` [Paclitaxel, paclitaxel], for which, in [6], the “IC50 Ratio” value came to 0.04 and the “Comprehensive Evaluation” value was “Additive (0.9-1.10)”. Moreover, in assay [6] (Reference Example Compound 55:other compound 1:0.02), the CI is reported as 0.98. For the same molecule, the CI in [6] (Reference Example Compound 55:other compound 1:0.06) is listed as 0.77.

As for `NCCNc1ccc(NCCN)c2c1C(=O)c1ccncc1C2=O` [Pixantrone, pixantrone], the “IC50 Ratio” value in assay [5] (MM.1S) was determined as 8.4. In addition, the CI in [5] (MM.1S, Reference Example Compound 55:other compound 1:3.7) came to 0.73; in assay [5] (MM.1S, Reference Example Compound 55:other compound 1:11), 0.84. For the same molecule, the “Comprehensive Evaluation” value in assay [5] (MM.1S) is on record as “Moderate”.

In the case of `Nc1cccc2c1C(=O)N(C1CCC(=O)NC1=O)C2=O` (centres unmarked) [Poma1idomide, pomalidomide], the “IC50 Ratio” value in assay [7] is 3. Further, the CI in assay [7] (setting [12]) is 0.81; in [7] (Reference Example Compound 55:other compound 1:3), 0.66. In [7], the “Comprehensive Evaluation” value was “Moderate”.

`C[C@]12C=CC(=O)C=C1CC[C@@H]1[C@@H]2[C@@H](O)C[C@@]2(C)[C@H]1CC[C@]2(O)C(=O)CO` [Prednisolone, prednisolone]: in assay [4], the “IC50 Ratio” value was found to be 8.3 and the “Comprehensive Evaluation” value is “Synergism (0.3-0.7)”. Besides, the CI in [4] (Reference Example Compound 55:other compound 1:3.3) amounted to 0.54. The CI in assay [4] (setting [13]) came out at 0.44.

For `Nc1ncnc2c1c(C#Cc1c(F)cccc1F)cn2[C@@H]1O[C@H](COS(N)(=O)=O)[C@@H](O)[C@H]1O` [Reference Example 132, [(2R,3S,4R,5R)-5-[4-Amino-5-[2-(2,6-difluorophenyl)ethynyl]pyrrolo[2,3-d]pyrimidin-7-yl]-3,4-dihydroxy-tetrahydrofuran-2-yl]methyl sulfamate], the IC50 (in general, the point on the concentration scale where inhibition reaches its midpoint) in [8] is at most 0.003 µM; in assay [9], 1.8 nM.

In the case of `O=C1CCC(N2C(=O)c3ccccc3C2=O)C(=O)N1` (centres unmarked) [Thalidomide, thalidomide], in [7], the “IC50 Ratio” value is 6603 and the “Comprehensive Evaluation” value is listed as “Synergism (0.3-0.7)”. Moreover, the CI in assay [7] (Reference Example Compound 55:other compound 1:900 (only ratio calculated)) was 0.63.

For the molecule `COc1cc2c(cc1O)CCN[C@]21CS[C@@H]2c3c(OC(C)=O)c(C)c4c(c3[C@H](COC1=O)N1[C@@H]2[C@H]2c3c(cc(C)c(OC)c3O)C[C@@H]([C@@H]1O)N2C)OCO4` [Trabectedin, trabectedin], in assay [3] (HOS), the “IC50 Ratio” value was determined as 0.2 and the “Comprehensive Evaluation” value is on record as “Additive (0.9-1.10)”. Also, in assay [3] (HOS, Reference Example Compound 55:other compound 1:0.1), the CI was found to be 0.83. In [3] (HOS, Reference Example Compound 55:other compound 1:0.3), the CI is given as 1.01.
